Experimental data published in patent publication US20110105436A1, “HETEROARYL COMPOUNDS, COMPOSITIONS, AND METHODS OF USE IN CANCER TREATMENT” (AUCKLAND UNISERVICES LIMITED, priority 2008, published 2011).

Tests used:
[1] = system: RCC4/VHL cells; test: XTT assay, RCC4/VHL versus RCC4 cells (selectivity ratio); format: cell-based; conditions: selectivity ratio, IC50 in RCC4/VHL cells/IC50 in RCC4 cells
Description: (§1) Cell Viability and XTT assays. For cell viability, 100,000 cells were plated in a 12-well plate. The following day, 1.25 μM STF-62247 was added in the presence or absence of 1 mM 3-MA for 24 hours at 37° C. Cells were trypsinized and counted by trypan blue exclusion. For XTT assays, 5000 RCC4 with and without VHL cells or 2,500 SN12C with and without VHL shRNA cells were plated in 96-well plates. The following day, vehicle (DMSO), STF-62247 or each of 19 analogs were added to media by serial dilution. Four days later, the media was aspirated and XTT solution containing 0.3 mg/ml of XTT (Sigma Chemical Co) in Phenol Red-free media, 20% FCS and 2.65 mg/ml N-methyl dibenzopyrazine methyl sulfate (PMS) was added to the cells and incubated at 37° C. for 1-2 hours. Metabolism of XTT was quantified by measuring the absorbance at 450 nm on a plate reader.
A. RCC4 and RCC4/VHL were treated with 1.25 μM of each 19 analogs for 20 hours and the presence of vacuoles was examined under light microscopy. B. Western blot for LC3 after treatment with each compound. Tubulin was used as loading control. Ratio is the relative from the IC50 in RCC4/VHL cells/IC50 in RCC4 cells. C. Acidic vesicle organelles (AVO) measured by FACS analysis in cells treated with 1.25 μM of STF-62247 or with compounds 21, 15, 25, 47, and 53 and stained with acridine orange.

[2] = system: RCC4 cells; test: XTT assay in VHL-deficient RCC4 cells; format: cell-based; conditions: Homo sapiens, 96 h, XTT assay, VHL-deficient RCC4 cells, four days
Description: as §1

Row | SMILES | Ratio ([1]; Table 2) | IC50 ([2]; Table 2) [µM] | Ratio ([1]; Table 1) | IC50 ([2]; Table 1) [µM]
1 | Cc1cccc(Nc2nc(-c3ccnc(CCCO)c3)cs2)c1 [Compound 162, 3-(4-{2-[(3-Methylphenyl)amino]-1,3-thiazol-4-yl}-2-pyridinyl)-1-propanol] | >7.7 | 5.2 |  | 
2 | Oc1ccc(Nc2nc(-c3ccccn3)cs2)cc1 [Compound 69, 4-{[4-(2-Pyridinyl)-1,3-thiazol-2-yl]amino}phenol] |  |  | 0.7 | 36
3 | Cc1cccc(Nc2nc(-c3ccncc3Cl)cs2)c1 [Compound 174, 4-(3-Chloro-4-pyridinyl)-N-(3-methylphenyl)-1,3-thiazol-2-amine] | >13.8 | 2.9 |  | 
4 | COc1cc(-c2csc(Nc3cccc(C)c3)n2)ccn1 [Compound 141, N-{4-[2-(Methyloxy)-4-pyridinyl]-1,3-thiazol-2-yl}-N-(3-methylphenyl)amine] | 1.2 | 28.7 |  | 
5 | Cc1cccc(Nc2nc(-c3ccncc3)c(C)s2)c1 [Compound 71, 5-Methyl-N-(3-methylphenyl)-4-(4-pyridinyl)-1,3-thiazol-2-amine] |  |  | >4 | 10
6 | Cc1cccc(Nc2nc(-c3ccncc3[N+](=O)[O-])cs2)c1 [Compound 181] | 4.1 | 8.2 |  | 
7 | O=P(O)(O)Oc1ccc(Nc2nc(-c3ccncc3)cs2)cc1 [Compound 41, 4-{[4-(4-Pyridinyl)-1,3-thiazol-2-yl]amino}phenyl Dihydrogen Phosphate] |  |  | 6.3 | 3
8 | CN(C)CCOc1ccc(Nc2nc(-c3ccncc3)cs2)cc1 [Compound 29, N-{4-[2-(Dimethylamino)ethoxy]phenyl}-4-(4-pyridinyl)-1,3-thiazol-2-amine] |  |  | 1.3 | 60
9 | c1ccc(Nc2nc(-c3ccncc3)cs2)cc1 [Compound 3, N-Phenyl-4-(4-pyridinyl)-1,3-thiazol-2-amine] |  |  | >10 | 7
10 | CN(C)CCc1ccc(Nc2nc(-c3ccncc3)cs2)cc1 [Compound 36, N-{4-[2-(Dimethylamino)ethyl]phenyl}-4-(4-pyridinyl)-1,3-thiazol-2-amine] |  |  | 1.2 | 50
11 | Cc1cccc(Nc2nc(-c3ccncc3C#CCO)cs2)c1 [Compound 186, 3-(4-{2-[(3-Methylphenyl)amino]-1,3-thiazol-4-yl}-3-pyridinyl)-2-propyn-1-ol] | 11.9 | 0.24 |  | 
12 | Cc1cccc(Nc2nc(-c3ccnc(Cl)c3)cs2)c1 [Compound 150, 4-(2-Chloro-4-pyridinyl)-N-(3-methylphenyl)-1,3-thiazol-2-amine] | 3.8 | 2.2 |  | 
13 | COc1ccc(Nc2nc(-c3ccncc3)cs2)cc1OC [Compound 55, N-(3,4-Dimethoxyphenyl)-4-(4-pyridinyl)-1,3-thiazol-2-amine] |  |  | 1.9 | 24
14 | Cc1cccc(Nc2nc(-c3ccnc(Br)c3)cs2)c1 [Compound 154, 4-(2-Bromo-4-pyridinyl)-N-(3-methylphenyl)-1,3-thiazol-2-amine] | >10 | 3.9 |  | 
15 | OCc1sc(Nc2ccc3c(c2)CCC3)nc1-c1ccncc1 [Compound 76, [2-(2,3-Dihydro-1H-inden-5-ylamino)-4-(4-pyridinyl)-1,3-thiazol-5-yl]methanol] |  |  | 1.4 | 6.8
16 | Cc1cccc(Nc2nc(-c3ccncc3)c(CN(C)C)s2)c1 [Compound 83, 5-[(Dimethylamino)methyl]-N-(3-methylphenyl)-4-(4-pyridinyl)-1,3-thiazol-2-amine] |  |  | 2.3 | 16
17 | Fc1ccccc1Nc1nc(-c2ccncc2)cs1 [Compound 113, N-(2-Fluorophenyl)-4-(4-pyridinyl)-1,3-thiazol-2-amine] |  |  | >2.8 | 14.3
18 | Clc1ccc(Nc2nc(-c3ccncc3)cs2)cc1Cl [Compound 61, N-(3,4-Dichlorophenyl)-4-(4-pyridinyl)-1,3-thiazol-2-amine] |  |  | >3 | 13.5
19 | COc1ccc(Nc2nc(-c3ccncc3)cs2)cc1 [Compound 27, N-(4-Methoxyphenyl)-4-(4-pyridinyl)-1,3-thiazol-2-amine] |  |  | 3.6 | 14
20 | Cc1ccc(Nc2nc(-c3ccncc3)cs2)cc1O [Compound 49, 2-Methyl-5-{[4-(4-pyridinyl)-1,3-thiazol-2-yl]amino}phenol] |  |  | 4.6 | 12

Row | SMILES | Ratio ([1]; Table 2) | IC50 ([2]; Table 2) [µM] | Ratio ([1]; Table 1) | IC50 ([2]; Table 1) [µM]
21 | Cc1cccc(Nc2nc(-c3ccncc3)c(CCCN3CCOCC3)s2)c1 [Compound 82, N-(3-Methylphenyl)-5-[3-(4-morpholinyl)propyl]-4-(4-pyridinyl)-1,3-thiazol-2-amine] |  |  | 1.6 | 5.8
22 | Cc1cccc(Nc2nc(-c3cc(Cl)nc(Cl)c3)cs2)c1 [Compound 158, N-[4-(2,6-Dichloro-4-pyridinyl)-1,3-thiazol-2-yl]-N-(3-methylphenyl)amine] | 2.3 | 15 |  | 
23 | O=P(O)(O)Oc1cccc(Nc2nc(-c3ccncc3)cs2)c1 [Compound 39, 3-{[4-(4-Pyridinyl)-1,3-thiazol-2-yl]amino}phenyl Dihydrogen Phosphate] |  |  | 1.1 | 29
24 | Cc1cc(C)cc(Nc2nc(-c3ccncc3)cs2)c1 [Compound 45, N-(3,5-Dimethylphenyl)-4-(4-pyridinyl)-1,3-thiazol-2-amine] |  |  | >9 | 4.5
25 | CCN(CC)Cc1sc(Nc2cccc(C)c2)nc1-c1ccncc1 [Compound 84, 5-[(Diethylamino)methyl]-N-(3-methylphenyl)-4-(4-pyridinyl)-1,3-thiazol-2-amine] |  |  | 1.4 | 13
26 | Cc1cccc(Nc2nc(-c3ccncc3F)cs2)c1 [Compound 170, 4-(3-Fluoro-4-pyridinyl)-N-(3-methylphenyl)-1,3-thiazol-2-amine] | >20 | 2 |  | 
27 | Cc1ccc(Nc2nc(-c3ccncc3)cs2)cc1C [Compound 43, N-(3,4-Dimethylphenyl)-4-(4-pyridinyl)-1,3-thiazol-2-amine] |  |  | 6.4 | 6.5
28 | Cc1cccc(Nc2nc(-c3ccnc4ccccc34)cs2)c1 [Compound 192, N-(3-Methylphenyl)-4-(4-quinolinyl)-1,3-thiazol-2-amine] | 1.6 | 12.3 |  | 
29 | Cc1sc(Nc2ccc3c(c2)CCC3)nc1-c1ccncc1 [Compound 72, N-(2,3-Dihydro-1H-inden-5-yl)-5-methyl-4-(4-pyridinyl)-1,3-thiazol-2-amine] |  |  | 1.5 | 12
30 | Cc1cccc(N(C)c2nc(-c3ccncc3)cs2)c1 [Compound 95, N-Methyl-N-(3-methylphenyl)-4-(4-pyridinyl)-1,3-thiazol-2-amine] |  |  | 0.6 | 28
31 | Cc1cccc(Nc2nc(-c3ccncc3)c(CN3CCCCC3)s2)c1 [Compound 85, N-(3-Methylphenyl)-5-(1-piperidinylmethyl)-4-(4-pyridinyl)-1,3-thiazol-2-amine] |  |  | 1.9 | 13
32 | CCc1cccc(Nc2nc(-c3ccncc3)cs2)c1 [Compound 7, N-(3-Ethylphenyl)-4-(4-pyridinyl)-1,3-thiazol-2-amine] |  |  | 9.6 | 2.5
33 | Cc1ccc(Nc2nc(-c3ccncc3)c(CO)s2)cc1 [Compound 75, [2-[(4-Methylphenyl)amino]-4-(4-pyridinyl)-1,3-thiazol-5-yl]methanol] |  |  | 1.2 | 14
34 | COC(=O)/C=C/c1sc(Nc2cccc(C)c2)nc1-c1ccncc1 [Compound 78, Methyl (2E)-3-[2-[(3-Methylphenyl)amino]-4-(4-pyridinyl)-1,3-thiazol-5-yl]-2-propenoate] |  |  | 2.8 | 2.5
35 | Oc1ccccc1Nc1nc(-c2ccncc2)cs1 [Compound 107, 2-{[4-(4-Pyridinyl)-1,3-thiazol-2-yl]amino}phenol] |  |  | >3.1 | 12.8
36 | Cc1cccc(Nc2nc(-c3ccncc3CCCO)cs2)c1 [Compound 187, 3-(4-{2-[(3-Methylphenyl)amino]-1,3-thiazol-4-yl}-3-pyridinyl)-1-propanol] | >5.9 | 6.8 |  | 
37 | Cc1cccc(Nc2nc(-c3ccncc3)c(C(N)=O)s2)c1 [Compound 91, 2-[(3-Methylphenyl)amino]-4-(4-pyridinyl)-1,3-thiazole-5-carboxamide] |  |  | >2.0 | 19.2
38 | Cc1cccc(Nc2nc(-c3ccccn3)cs2)c1 [Compound 68, N-(3-Methylphenyl)-4-(2-pyridinyl)-1,3-thiazol-2-amine] |  |  | 0.9 | 37
39 | Cc1cccc(Nc2nc(-c3ccncc3Br)cs2)c1 [Compound 178, 4-(3-Bromo-4-pyridinyl)-N-(3-methylphenyl)-1,3-thiazol-2-amine] | >10 | 3.9 |  | 
40 | OCCc1ccc(Nc2nc(-c3ccncc3)cs2)cc1 [Compound 23, 2-(4-{[4-(4-Pyridinyl)-1,3-thiazol-2-yl]amino}phenyl)ethanol] |  |  | 16 | 5
